Measurements from PMC6178282, “Comparative cell biological study of in vitro antitumor and antimetastatic activity on melanoma cells of GnRH-III-containing conjugates modified with short-chain fatty acids” (Beilstein Journal of Organic Chemistry, 2018).

Columns and labels:
A2058 melanoma cells = assay: Apoptosis assay, annexin V-FITC flow cytometry; assay type: cell-based, human; conditions: 10^−5 M, 24 h, average of two parallels ± S.D., control 10.6 ± 0.51
Method: The pro-apoptotic effects of conjugates and Dau at 10^−5 M concentration was studied after 24 h incubation by flow cytometry using FITC-annexin V (Sony Biotechnology, Weybridge, UK) and a novel image cytometer (NucleoCounter® NC-250^TM, ChemoMetec A/S, Lillerød, Denmark) using Vitabright-48™ (ChemoMetec A/S, Lillerød, Denmark), a cell permeable dye that reacts with thiol groups to form a fluorescent product. […]
normalizing the viability of conjugate-treated cells with that of the control cells, and these indices of groups pretreated with inhibitors or DMSO were statistically compared.
The apoptotic effect of conjugates and Dau was determined by a FACSCalibur flow cytometer (Becton Dickinson, San Jose, CA, USA) after staining with annexin V-FITC (Sony Biotechnology, Weybridge, UK) and NucleoCounter® NC-250™ cell analyzer (ChemoMetec A/S, Lillerød, Denmark) using Vitabright-48™, a cell-permeable fluorescent dye (ChemoMetec A/S, Lillerød, Denmark). […]
The cells were dissociated by a TrypLE reagent (Thermo Fisher Scientific, Waltham, MA, USA) composed of recombinant enzyme protecting the cell’s surface proteins and it was followed by a centrifugation and a washing step with PBS. […] Before labeling with annexin V-FITC, the cells were measured by a flow cytometer for controlling the autofluorescence of cells in case of each treatment group. […]

A2058 cells = assay: Cell adhesion measurement, xCELLigence impedimetry; assay type: cell-based, human; conditions: Delta CI at 3 h normalized to control, three parallels
Excerpt: The first crucial steps in metastasis cascade are the impaired adhesion contacts and in parallel the increased motility of tumor cells. These two events substantially provide for tumor cells to detach from the primary tumor and migrate to the surrounding tissue. Besides the tumor-selective antiproliferative/cytotoxic activity of the conjugates, they could be also desired to have an ability to interfere with the dissemination of cancer cells by modulating their adhesion and migration. In order to evaluate the conjugates as antimetastatic therapeutics, their effects on melanoma cell adhesion were investigated by the impedance-based xCELLigence System. The cell adhesion modulator effects of compounds were characterized by Delta Cell index values. […]
The effect of Dau-GnRH-III conjugates on cell adhesion of model cell was assessed using the xCELLigence SP System ( ACEA Biosciences, San Diego, CA, USA).
The adhesion assay, analogous to the description in [5], was started with a background measurement as mentioned above in the section “Cell proliferation and cytotoxicity measurement”. […] The adhesion of A2058 cells was monitored every 20 sec for at least 12 h at 10 kHz.
The attachment and spreading of model cell were characterized by a time-course study of the Delta CI values. The Delta CI values were calculated by the integrated software (RTCA 2.0). […]

## COc1cccc2c1C(=O)c1c(O)c3c(c(O)c1C2=O)C[C@@](O)(C(C)=O)C[C@@H]3O[C@H]1C[C@H](N)[C@H](O)[C@H](C)O1 [daunorubicin]
A2058 melanoma cells
  the ratio of apoptotic cells, annexin V: 33.6 ± 5.51 %
A2058 cells; 10^−5 M
  effect on cell adhesion (Delta Cell index): decrease
A2058 cells; tested 10^−8–10^−5 M
  concentrations at which adhesion of A2058 cells was increased (Delta Cell index): 10^−8 to 10^−7 M
